Laboratory results as given in patent publication US20140255392A1 (BAYER INTELLECTUAL PROPERTY GMBH, priority 2011, published 2014).

Biological target: T1, human kinase Mps-1 (Homo sapiens, UniProt P33981)
T1 construct: N-terminally GST-tagged human full length recombinant Mps-1 kinase; GST (N); purchased Invitrogen, Karslruhe, Germany PV4071
T1 sequence (P33981 1-857): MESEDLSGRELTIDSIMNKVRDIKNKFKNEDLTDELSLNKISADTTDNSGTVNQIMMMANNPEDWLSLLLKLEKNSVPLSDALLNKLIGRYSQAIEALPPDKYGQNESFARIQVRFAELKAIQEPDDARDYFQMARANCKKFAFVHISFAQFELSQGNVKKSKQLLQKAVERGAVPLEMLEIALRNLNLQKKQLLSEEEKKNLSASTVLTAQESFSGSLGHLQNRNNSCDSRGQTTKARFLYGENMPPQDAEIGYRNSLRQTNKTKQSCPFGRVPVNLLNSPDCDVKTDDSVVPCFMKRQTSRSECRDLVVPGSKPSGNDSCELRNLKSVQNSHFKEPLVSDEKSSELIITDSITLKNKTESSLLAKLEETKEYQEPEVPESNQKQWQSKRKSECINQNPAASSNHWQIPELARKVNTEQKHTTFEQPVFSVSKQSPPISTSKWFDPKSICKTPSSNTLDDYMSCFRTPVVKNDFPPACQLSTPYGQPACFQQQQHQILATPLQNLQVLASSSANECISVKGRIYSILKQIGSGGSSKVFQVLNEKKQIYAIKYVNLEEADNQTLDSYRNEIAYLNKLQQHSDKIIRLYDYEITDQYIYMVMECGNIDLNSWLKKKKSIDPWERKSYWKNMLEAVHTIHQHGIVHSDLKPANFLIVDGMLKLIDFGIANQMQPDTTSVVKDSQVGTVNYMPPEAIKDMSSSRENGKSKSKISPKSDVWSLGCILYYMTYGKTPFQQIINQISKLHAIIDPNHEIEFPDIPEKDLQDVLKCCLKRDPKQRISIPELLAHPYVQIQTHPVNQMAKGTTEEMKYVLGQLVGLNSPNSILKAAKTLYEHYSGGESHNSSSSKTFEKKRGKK
Assay: Mps-1 kinase assay (TR-FRET)
Format: biochemical
Conditions: N-terminally GST-tagged human full length recombinant Mps-1; 10 μM ATP; 1 μM peptide substrate; 60 min at 22° C.
Procedure: The human kinase Mps-1 phosphorylates a biotinylated substrate peptide. Detection of the phosphorylated product is achieved by time-resolved fluorescence resonance energy transfer (TR-FRET) from Europium-labelled anti-phospho-Serine/Threonine antibody as donor to streptavidin labelled with cross-linked allophycocyanin (SA-XLent) as acceptor. Compounds are tested for their inhibition of the kinase activity.
N-terminally GST-tagged human full length recombinant Mps-1 kinase (purchased from Invitrogen, Karslruhe, Germany, cat. no PV4071) was used. As substrate for the kinase reaction a biotinylated peptide of the amino-acid sequence […] (C-terminus in amide form, purchased from Biosynthan GmbH, Berlin) was used.
The concentration of Mps-1 in the assay was adjusted to the activity of the enzyme lot and was chosen appropriate to have the assay in the linear range, typical enzyme concentrations were in the range of about 1 nM (final conc. in the 5 μl assay volume).
The resulting mixture was incubated 1 h at 22° C. to allow the binding of the phosphorylated peptide to the anti-phospho(Ser/Thr)-Europium-antibody. Subsequently the amount of phosphorylated substrate was evaluated by measurement of the resonance energy transfer from the Europium-labelled anti-phospho(Ser/Thr) antibody to the Streptavidin-XLent.

SMILES	IC50
CCNC(=O)c1ccc(-c2cnc3c(NCCC(F)(F)F)cc(-c4ccccc4OC)cn23)cc1C [Example 82, N-ethyl-4-{6-(2-methoxyphenyl)-8-[(3,3,3-trifluoropropyl)amino]imidazo[1,2-a]pyridin-3-yl}-2-methylbenzamide]	21.3 nM
CNC(=O)c1ccc(-c2cnc3c(NCCC(F)(F)F)cc(Oc4cccc(F)c4)cn23)cc1C [Example 8, 4-{6-(3-Fluorophenoxy)-8-[(3,3,3-trifluoropropyl)amino]imidazo[1,2-a]pyridin-3-yl}-N,2-dimethylbenzamide]	3.4 nM
C/C=C/c1cc(NCCC(F)(F)F)c2ncc(-c3ccc(C(=O)NC)c(C)c3)n2c1 [Example 112, N,2-dimethyl-4-{6-[(1E)-prop-1-en-1-yl]-8-[(3,3,3-trifluoropropyl)amino]imidazo[1,2-a]pyridin-3-yl}benzamide]	21.8 nM
Cc1cc(-c2cnc3c(NCCC(F)(F)F)cc(Oc4cccc(Cl)c4)cn23)ccc1C(=O)NC1CC1F (single isomer, unassigned) [Example 39 (ent.-A or A), 4-{6-(3-chlorophenoxy)-8-[(3,3,3-trifluoropropyl)amino]imidazo[1,2-a]pyridin-3-yl}-N-{[1R,2R) or (1S,2S)]-2-fluorocyclopropyl}-2-methylbenzamide]	4.9 nM
COc1cccc(Oc2cc(NCCC(F)(F)F)c3ncc(-c4ccc(C(=O)NC5(C)CC5)c(C)c4)n3c2)c1 [Example 54, 4-{6-(3-Methoxyphenoxy)-8-[(3,3,3-trifluoropropyl)amino]imidazo[1,2-a]pyridin-3-yl}-2-methyl-N-(1-methylcyclopropyl)benzamide]	16 nM
CCNC(=O)c1ccc(-c2cnc3c(NCCC(F)(F)F)cc(CCCO)cn23)cc1C [Example 127, N-ethyl-4-{6-(3-hydroxypropyl)-8-[(3,3,3-trifluoropropyl)amino]imidazo[1,2-a]pyridin-3-yl}-2-methylbenzamide]	62.5 nM
Cc1cc(-c2cnc3c(NCCC(F)(F)F)cc(Oc4cccc(F)c4)cn23)ccc1C(=O)NC1(C)CC1 [Example 11, 4-{6-(3-Fluorophenoxy)-8-[(3,3,3-trifluoropropyl)amino]imidazo[1,2-a]pyridin-3-yl}-2-methyl-N-(1-methylcyclopropyl)benzamide]	3.8 nM
C#Cc1cc(NCCC(F)(F)F)c2ncc(-c3ccc(C(=O)NC)c(C)c3)n2c1 [Example 14, 4-{6-ethynyl-8-[(3,3,3-trifluoropropyl)amino]imidazo[1,2-a]pyridin-3-yl}-N,2-dimethylbenzamide]	65.2 nM
Cc1cc(-c2cnc3c(NCCC(F)(F)F)cc(Oc4cccc(F)c4)cn23)ccc1C(=O)NC1CCC1 [Example 24, N-cyclobutyl-4-{6-(3-fluorophenoxy)-8-[(3,3,3-trifluoropropyl)amino]imidazo[1,2-a]pyridin-3-yl}-2-methylbenzamide]	11.1 nM
CCc1cc(NCCC(F)(F)F)c2ncc(-c3ccc(C(=O)NC4(C#N)CC4)c(C)c3)n2c1 [Example 103]	156 nM
Cc1cc(-c2cnc3c(NCCC(F)(F)F)cc(Oc4cc(F)ccc4O)cn23)ccc1C(=O)NC1CC1 [Example 175, N-cyclopropyl-4-{6-(5-fluoro-2-hydroxyphenoxy)-8-[(3,3,3-trifluoropropyl)amino]imidazo[1,2-a]pyridin-3-yl}-2-methylbenzamide]	3 nM
C#Cc1cc(NCCC(F)(F)F)c2ncc(-c3ccc(C(=O)N[C@@H]4C[C@H]4F)c(C)c3)n2c1 (relative stereo) [Example 16, 4-{6-ethynyl-8-[(3,3,3-trifluoropropyl)amino]imidazo[1,2-a]pyridin-3-yl}-N-[rel-(1R,2R)-2-fluorocyclopropyl]-2-methylbenzamide]	29.4 nM
COc1c(F)cccc1Oc1cc(NCCC(F)(F)F)c2ncc(-c3ccc(C(=O)NC4CC4)c(C)c3)n2c1 [Example 146, N-cyclopropyl-4-{6-(3-fluoro-2-methoxyphenoxy)-8-[(3,3,3-trifluoropropyl)amino]imidazo[1,2-a]pyridin-3-yl}-2-methylbenzamide]	3.2 nM
C/C=C/c1cc(NCCC(F)(F)F)c2ncc(-c3ccc(C(=O)NC4(C)CC4)c(C)c3)n2c1 [Example 114, 2-Methyl-N-(1-methylcyclopropyl)-4-{6-[(1E)-prop-1-en-1-yl]-8-[(3,3,3-trifluoropropyl)amino]imidazo[1,2-a]pyridin-3-yl}benzamide]	75.3 nM

These reach a lower IC50. Values come first.

IC50	SMILES
2.9 nM	CCNC(=O)c1ccc(-c2cnc3c(NCCC(F)(F)F)cc(Oc4cccc(F)c4)cn23)cc1C [Example 10, N-ethyl-4-{6-(3-fluorophenoxy)-8-[(3,3,3-trifluoropropyl)amino]imidazo[1,2-a]pyridin-3-yl}-2-methylbenzamide]
2.9 nM	CNC(=O)c1ccc(-c2cnc3c(NCCC(F)(F)F)cc(Oc4cccc(OC)c4)cn23)cc1C [Example 55, 4-{6-(3-Methoxyphenoxy)-8-[(3,3,3-trifluoropropyl)amino]imidazo[1,2-a]pyridin-3-yl}-N,2-dimethylbenzamide]
1.8 nM	Cc1cc(-c2cnc3c(NCCC(F)(F)F)cc(Oc4cccc(F)c4F)cn23)ccc1C(=O)NC1(C)CC1 [Example 71, 4-{6-(2,3-Difluorophenoxy)-8-[(3,3,3-trifluoropropyl)amino]imidazo[1,2-a]pyridin-3-yl}-2-methyl-N-(1-methylcyclopropyl)benzamide]
1.8 nM	Cc1cc(-c2cnc3c(NCCC(F)(F)F)cc(Oc4cccc(F)c4O)cn23)ccc1C(=O)NC1CC1 [Example 176, N-cyclopropyl-4-{6-(3-fluoro-2-hydroxyphenoxy)-8-[(3,3,3-trifluoropropyl)amino]imidazo[1,2-a]pyridin-3-yl}-2-methylbenzamide]
1.8 nM	CCNC(=O)c1ccc(-c2cnc3c(NCCC(F)(F)F)cc(Oc4ccc(OC)c(F)c4)cn23)cc1C [Example 107, N-ethyl-4-{6-(3-fluoro-4-methoxyphenoxy)-8-[(3,3,3-trifluoropropyl)amino]imidazo[1,2-a]pyridin-3-yl}-2-methylbenzamide]
1.5 nM	CNC(=O)c1ccc(-c2cnc3c(NCC4CCOCC4)cc(Oc4ccc(OC)c(F)c4)cn23)cc1C [Example 121, 4-{6-(3-Fluoro-4-methoxyphenoxy)-8-[(tetrahydro-2H-pyran-4-ylmethyl)amino]imidazo[1,2-a]pyridin-3-yl}-N,2-dimethylbenzamide]
1.3 nM	Cc1cc(-c2cnc3c(NCC(F)F)cc(Oc4cccc(F)c4F)cn23)ccc1C(=O)NC1CC1 [Example 163, N-cyclopropyl-4-{8-[(2,2-difluoroethyl)amino]-6-(2,3-difluorophenoxy)imidazo[1,2-a]pyridin-3-yl}-2-methylbenzamide]
0.9 nM	Cc1cc(-c2cnc3c(NCCC(F)(F)F)cc(-c4ccccc4CO)cn23)ccc1C(=O)NC1CC1 [Example 2-1, N-cyclopropyl-4-{6-[2-(hydroxymethyl)phenyl]-8-[(3,3,3-trifluoropropyl)amino]imidazo[1,2-a]pyridin-3-yl}-2-methylbenzamide]
0.9 nM	COc1cccc(Oc2cc(NCCC(F)(F)F)c3ncc(-c4ccc(C(=O)NC5CC5)c(C)c4)n3c2)c1 [Example 52, N-cyclopropyl-4-{6-(3-methoxyphenoxy)-8-[(3,3,3-trifluoropropyl)amino]imidazo[1,2-a]pyridin-3-yl}-2-methylbenzamide]
0.8 nM	Cc1cc(-c2cnc3c(NCCC(F)(F)F)cc(-c4ccc(C(=O)N[C@H]5C[C@@H]5F)c(C)c4)cn23)ccc1C(=O)NC1CC1 (relative stereo) [Example 152, 4-{3-[4-(cyclopropylcarbamoyl)-3-methylphenyl]-8-[(3,3,3-trifluoropropyl)amino]imidazo[1,2-a]pyridin-6-yl}-N-[rel-(1S,2S)-2-fluorocyclopropyl]-2-methylbenzamide]
0.5 nM	Cc1cc(-c2cc(NCCC(F)(F)F)c3ncc(-c4ccc(C(=O)NC5CC5)c(C)c4)n3c2)ccc1C(N)=O [Example 153, 4-{6-(4-carbamoyl-3-methylphenyl)-8-[(3,3,3-trifluoropropyl)amino]imidazo[1,2-a]pyridin-3-yl}-N-cyclopropyl-2-methylbenzamide]
